From the NIST ThermoML archive (doi:10.1021/acs.jced.8b00229)
± gives the expanded uncertainty stated by the source.

Details: Liquid, Vibrating tube method

FCC(F)(F)F [1,1,1,2-tetrafluoroethane]
Details	mass density [kg/m3]
283.55 K, 40000 kPa	1376.3 ± 2.1
283.55 K, 60000 kPa	1413.1 ± 2.3
283.55 K, 80000 kPa	1443.2 ± 2.5
283.56 K, 20000 kPa	1328.7 ± 2
283.57 K, 5000 kPa	1279.4 ± 2
283.57 K, 10000 kPa	1297.9 ± 2
303.39 K, 1000 kPa	1188.5 ± 2
303.39 K, 5000 kPa	1212.5 ± 2
303.39 K, 10000 kPa	1237 ± 2
303.39 K, 20000 kPa	1275.9 ± 2
303.39 K, 40000 kPa	1332.1 ± 2.1
303.39 K, 80000 kPa	1407.4 ± 2.4
303.4 K, 60000 kPa	1373.9 ± 2.2
322.89 K, 3000 kPa	1120.9 ± 2.1
322.91 K, 5000 kPa	1137.8 ± 2.1
322.91 K, 10000 kPa	1172 ± 2
322.93 K, 20000 kPa	1221.5 ± 2
322.93 K, 40000 kPa	1288.4 ± 2.1
322.93 K, 60000 kPa	1335.8 ± 2.2
322.94 K, 80000 kPa	1372.8 ± 2.4
342.75 K, 3000 kPa	1017.4 ± 2.2
342.75 K, 5000 kPa	1047.5 ± 2.1
342.76 K, 10000 kPa	1098.8 ± 2.1
342.77 K, 20000 kPa	1164.1 ± 2
342.77 K, 40000 kPa	1243.6 ± 2.1
342.78 K, 60000 kPa	1297.3 ± 2.1
342.78 K, 80000 kPa	1338.2 ± 2.3
362.57 K, 5000 kPa	924.9 ± 2.3
362.57 K, 10000 kPa	1015.4 ± 2.1
362.58 K, 20000 kPa	1103.4 ± 2
362.59 K, 40000 kPa	1198.4 ± 2.1
362.59 K, 60000 kPa	1258.8 ± 2.1
362.59 K, 80000 kPa	1303.8 ± 2.3

C=CCCCCC [1-heptene]
Details	mass density [kg/m3]
283.52 K, 15000 kPa	718.3 ± 2
283.52 K, 20000 kPa	722.2 ± 2
283.52 K, 25000 kPa	725.9 ± 2.1
283.52 K, 30000 kPa	729.4 ± 2.1
283.52 K, 35000 kPa	732.9 ± 2.1
283.52 K, 40000 kPa	736.1 ± 2.1
283.52 K, 55000 kPa	745.3 ± 2.1
283.53 K, 100 kPa	705.5 ± 2
283.53 K, 500 kPa	705.9 ± 2
283.53 K, 1000 kPa	706.4 ± 2
283.53 K, 3000 kPa	708.2 ± 2
283.53 K, 5000 kPa	710 ± 2
283.53 K, 10000 kPa	714.3 ± 2
283.53 K, 45000 kPa	739.3 ± 2.1
283.53 K, 50000 kPa	742.4 ± 2.1
283.53 K, 60000 kPa	748.2 ± 2.1
283.53 K, 80000 kPa	759 ± 2.2
283.53 K, 90000 kPa	763.9 ± 2.2
283.54 K, 70000 kPa	753.8 ± 2.2
283.54 K, 100000 kPa	768.7 ± 2.3
293.45 K, 100 kPa	697 ± 2
293.45 K, 500 kPa	697.4 ± 2
293.45 K, 1000 kPa	697.9 ± 2
293.45 K, 5000 kPa	701.8 ± 2
293.45 K, 20000 kPa	714.8 ± 2
293.45 K, 25000 kPa	718.7 ± 2.1
293.45 K, 30000 kPa	722.4 ± 2.1
293.45 K, 35000 kPa	726 ± 2.1
293.45 K, 55000 kPa	739 ± 2.1
293.45 K, 60000 kPa	742 ± 2.1
293.45 K, 70000 kPa	747.8 ± 2.2
293.45 K, 80000 kPa	753.2 ± 2.2
293.45 K, 90000 kPa	758.3 ± 2.2
293.45 K, 100000 kPa	763.1 ± 2.3
293.46 K, 3000 kPa	699.9 ± 2
293.46 K, 10000 kPa	706.4 ± 2
293.46 K, 15000 kPa	710.7 ± 2
293.46 K, 40000 kPa	729.4 ± 2.1
293.46 K, 45000 kPa	732.8 ± 2.1
293.46 K, 50000 kPa	736 ± 2.1
303.37 K, 100 kPa	688.4 ± 2
303.37 K, 500 kPa	688.9 ± 2
303.37 K, 55000 kPa	732.8 ± 2.1
303.37 K, 100000 kPa	757.7 ± 2.3
303.38 K, 1000 kPa	689.5 ± 2
303.38 K, 3000 kPa	691.6 ± 2
303.38 K, 5000 kPa	693.6 ± 2
303.38 K, 10000 kPa	698.5 ± 2
303.38 K, 15000 kPa	703.1 ± 2
303.38 K, 20000 kPa	707.4 ± 2
303.38 K, 25000 kPa	711.5 ± 2.1
303.38 K, 30000 kPa	715.4 ± 2.1
303.38 K, 35000 kPa	719.2 ± 2.1
303.38 K, 40000 kPa	722.8 ± 2.1
303.38 K, 45000 kPa	726.2 ± 2.1
303.38 K, 50000 kPa	729.5 ± 2.1
303.38 K, 60000 kPa	735.9 ± 2.1
303.38 K, 70000 kPa	741.8 ± 2.2
303.38 K, 80000 kPa	747.4 ± 2.2
303.38 K, 90000 kPa	752.6 ± 2.2
313.29 K, 100 kPa	680.6 ± 2
313.3 K, 500 kPa	681.1 ± 2
313.3 K, 5000 kPa	686.2 ± 2
313.3 K, 20000 kPa	700.9 ± 2
313.3 K, 25000 kPa	705.2 ± 2.1
313.3 K, 30000 kPa	709.3 ± 2.1
313.3 K, 35000 kPa	713.3 ± 2.1
313.3 K, 40000 kPa	717 ± 2.1
313.3 K, 45000 kPa	720.6 ± 2.1
313.3 K, 50000 kPa	724 ± 2.1
313.3 K, 55000 kPa	727.4 ± 2.1
313.3 K, 60000 kPa	730.6 ± 2.2
313.3 K, 70000 kPa	736.8 ± 2.2
313.3 K, 80000 kPa	742.6 ± 2.2
313.3 K, 90000 kPa	748 ± 2.2
313.3 K, 100000 kPa	753.1 ± 2.3
313.31 K, 1000 kPa	681.8 ± 2
313.31 K, 3000 kPa	684 ± 2
313.31 K, 10000 kPa	691.3 ± 2
313.31 K, 15000 kPa	696.3 ± 2
323.18 K, 100 kPa	670.5 ± 2
323.18 K, 500 kPa	671 ± 2
323.18 K, 1000 kPa	671.6 ± 2
323.18 K, 3000 kPa	674.1 ± 2
323.18 K, 10000 kPa	682 ± 2
323.18 K, 25000 kPa	696.6 ± 2.1
323.18 K, 30000 kPa	700.9 ± 2.1
323.18 K, 35000 kPa	705 ± 2.1
323.18 K, 40000 kPa	708.9 ± 2.1
323.18 K, 45000 kPa	712.7 ± 2.1
323.18 K, 50000 kPa	716.3 ± 2.1
323.18 K, 55000 kPa	719.7 ± 2.1
323.18 K, 60000 kPa	723.1 ± 2.2
323.18 K, 70000 kPa	729.6 ± 2.2
323.18 K, 80000 kPa	735.5 ± 2.2
323.19 K, 5000 kPa	676.4 ± 2
323.19 K, 15000 kPa	687.1 ± 2
323.19 K, 20000 kPa	692 ± 2
323.19 K, 90000 kPa	741.1 ± 2.3
323.19 K, 100000 kPa	746.4 ± 2.3
333.04 K, 100 kPa	661.5 ± 2
333.04 K, 500 kPa	662 ± 2
333.04 K, 1000 kPa	662.7 ± 2
333.05 K, 3000 kPa	665.3 ± 2
333.05 K, 5000 kPa	667.9 ± 2
333.05 K, 10000 kPa	673.8 ± 2
333.05 K, 15000 kPa	679.3 ± 2
333.05 K, 20000 kPa	684.5 ± 2.1
333.05 K, 25000 kPa	689.3 ± 2.1
333.05 K, 30000 kPa	693.8 ± 2.1
333.05 K, 35000 kPa	698.1 ± 2.1
333.05 K, 40000 kPa	702.2 ± 2.1
333.05 K, 45000 kPa	706.2 ± 2.1
333.05 K, 50000 kPa	709.9 ± 2.1
333.05 K, 55000 kPa	713.5 ± 2.1
333.05 K, 60000 kPa	717 ± 2.2
333.05 K, 70000 kPa	723.7 ± 2.2
333.05 K, 80000 kPa	729.9 ± 2.2
333.05 K, 90000 kPa	735.7 ± 2.3
333.05 K, 100000 kPa	741.1 ± 2.3
342.91 K, 100 kPa	652.7 ± 2
342.91 K, 500 kPa	653.3 ± 2
342.91 K, 1000 kPa	654 ± 2
342.91 K, 3000 kPa	656.9 ± 2
342.91 K, 15000 kPa	671.8 ± 2
342.91 K, 30000 kPa	687.1 ± 2.1
342.91 K, 35000 kPa	691.7 ± 2.1
342.92 K, 5000 kPa	659.6 ± 2
342.92 K, 10000 kPa	666 ± 2
342.92 K, 20000 kPa	677.4 ± 2.1
342.92 K, 25000 kPa	682.4 ± 2.1
342.92 K, 40000 kPa	696 ± 2.1
342.92 K, 45000 kPa	700.1 ± 2.1
342.92 K, 50000 kPa	703.9 ± 2.1
342.92 K, 55000 kPa	707.7 ± 2.2
342.92 K, 60000 kPa	711.3 ± 2.2
342.92 K, 70000 kPa	718.3 ± 2.2
342.92 K, 80000 kPa	724.6 ± 2.2
342.92 K, 90000 kPa	730.6 ± 2.3
342.92 K, 100000 kPa	736.2 ± 2.3
352.8 K, 100 kPa	644.3 ± 2
352.8 K, 500 kPa	644.9 ± 2
352.8 K, 40000 kPa	690 ± 2.1
352.8 K, 45000 kPa	694.3 ± 2.1
352.8 K, 50000 kPa	698.4 ± 2.1
352.8 K, 70000 kPa	713.2 ± 2.2
352.8 K, 80000 kPa	719.7 ± 2.2
352.8 K, 90000 kPa	725.9 ± 2.3
352.8 K, 100000 kPa	731.7 ± 2.3
352.81 K, 1000 kPa	645.7 ± 2
352.81 K, 3000 kPa	648.8 ± 2
352.81 K, 5000 kPa	651.6 ± 2
352.81 K, 10000 kPa	658.4 ± 2
352.81 K, 15000 kPa	664.7 ± 2
352.81 K, 20000 kPa	670.5 ± 2.1
352.81 K, 25000 kPa	675.8 ± 2.1
352.81 K, 30000 kPa	680.9 ± 2.1
352.81 K, 35000 kPa	685.6 ± 2.1
352.81 K, 55000 kPa	702.3 ± 2.2
352.81 K, 60000 kPa	706 ± 2.2
362.68 K, 100 kPa	633.6 ± 2
362.68 K, 500 kPa	634.3 ± 2
362.68 K, 100000 kPa	725.7 ± 2.3
362.69 K, 1000 kPa	635 ± 2
362.69 K, 3000 kPa	638.5 ± 2
362.69 K, 5000 kPa	641.7 ± 2
362.69 K, 20000 kPa	661.9 ± 2.1
362.69 K, 30000 kPa	672.8 ± 2.1
362.69 K, 35000 kPa	677.8 ± 2.1
362.69 K, 40000 kPa	682.5 ± 2.1
362.69 K, 45000 kPa	687 ± 2.1
362.69 K, 50000 kPa	691.2 ± 2.1
362.69 K, 55000 kPa	695.2 ± 2.2
362.69 K, 60000 kPa	699.1 ± 2.2
362.69 K, 70000 kPa	706.6 ± 2.2
362.69 K, 80000 kPa	713.4 ± 2.3
362.69 K, 90000 kPa	719.7 ± 2.3
362.7 K, 10000 kPa	649.1 ± 2
362.7 K, 15000 kPa	655.8 ± 2
362.7 K, 25000 kPa	667.6 ± 2.1
